Assay results from patent US20060084135A1, “Compositions for manipulating the lifespan and stress response of cells and organisms” (priority 2003, published 2006).
Values joined by “and” are separate entries in the source; they are usually repeats but may differ in a detail not shown here. Equal values may be shown once. Where a name gives a salt, the structure may show the parent alone. Read-outs that look alike come from different tables or passages of the source.

Biological target: T1, recombinant human SIRT1 (Homo sapiens, UniProt Q96EB6)
T1 sequence (Q96EB6 1-747): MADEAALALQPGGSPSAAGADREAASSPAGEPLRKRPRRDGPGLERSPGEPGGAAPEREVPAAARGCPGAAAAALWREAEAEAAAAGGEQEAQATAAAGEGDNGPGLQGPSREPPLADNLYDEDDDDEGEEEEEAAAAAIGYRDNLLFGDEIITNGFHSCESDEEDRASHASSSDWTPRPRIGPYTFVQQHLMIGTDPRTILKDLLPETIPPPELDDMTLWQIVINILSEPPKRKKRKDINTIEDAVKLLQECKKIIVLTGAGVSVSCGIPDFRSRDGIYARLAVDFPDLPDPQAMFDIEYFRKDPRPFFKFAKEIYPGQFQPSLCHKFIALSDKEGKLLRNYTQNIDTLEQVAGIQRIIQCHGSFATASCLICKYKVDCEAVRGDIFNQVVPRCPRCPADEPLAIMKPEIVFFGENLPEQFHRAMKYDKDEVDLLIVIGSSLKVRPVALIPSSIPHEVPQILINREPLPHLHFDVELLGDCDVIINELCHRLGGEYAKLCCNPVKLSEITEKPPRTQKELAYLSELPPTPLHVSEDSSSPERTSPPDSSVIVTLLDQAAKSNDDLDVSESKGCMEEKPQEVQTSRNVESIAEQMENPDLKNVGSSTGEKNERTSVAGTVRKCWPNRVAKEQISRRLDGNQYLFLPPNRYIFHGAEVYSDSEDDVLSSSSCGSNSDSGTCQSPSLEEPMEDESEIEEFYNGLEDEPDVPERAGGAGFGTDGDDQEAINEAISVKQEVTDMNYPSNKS
Assay: SIRT1 fluorescent deacetylation assay (p53-382 acetylated peptide substrate)
Assay type: biochemical

[1] = Table 11, resveratrol analogs, 100 μM, 25 μM NAD+, 25 μM p53-382 acetylated peptide
[2] = Table 13, resveratrol analogs, 100 μM, 25 μM NAD+, 25 μM p53-382 acetylated peptide
[3] = Table 12, resveratrol analogs, 100 μM, 25 μM NAD+, 25 μM p53-382 acetylated peptide
[4] = Table 9, resveratrol analogs, 100 μM, 25 μM NAD+, 25 μM p53-382 acetylated peptide
[5] = Table 10, resveratrol analogs, 100 μM, 25 μM NAD+, 25 μM p53-382 acetylated peptide
[6] = Supplementary Table 6, free radical protective compounds, 100 μM, 25 μM NAD+, 25 μM p53-382 acetylated peptide
[7] = Supplementary Table 1, stilbenes and chalcones, 100 μM, 25 μM NAD+, 25 μM p53-382 acetylated peptide
[8] = Supplementary Table 8, compound at 10 μM, 25 μM NAD+, 25 μM p53-382 acetylated peptide
[9] = Supplementary Table 4, isoflavones, flavanones, anthocyanidins, 100 μM, 25 μM NAD+, 25 μM p53-382 acetylated peptide
[10] = Supplementary Table 3, flavones part II, 100 μM, 25 μM NAD+, 25 μM p53-382 acetylated peptide
[11] = Supplementary Table 2, flavones part I, 100 μM, 25 μM NAD+, 25 μM p53-382 acetylated peptide
[12] = Supplementary Table 7, miscellaneous compounds, 100 μM, 25 μM NAD+, 25 μM p53-382 acetylated peptide

Oc1cc(O)cc(/C=C/c2ccc3ccccc3c2)c1 [BML-218, (E)-1-(3,5-Dihydroxyphenyl)-2-(2-napthyl) ethene]
Ratio to Control Rate Mean ± SE [1]: 3.05 ± 0.37

O=C(Nc1ccccc1)c1cc(O)cc(O)c1 [BML-219, N-phenyl-(3,5-dihydroxy)benzamide]
Ratio to Control Rate Mean ± SE [2]: 0.902 ± 0.014

CC(=O)Nc1ccc(/C=C/c2cc(O)cc(O)c2)cc1 [BML-222, 3,5-Dihydroxy-4′-acetamide-trans-stilbene]
Ratio to Control Rate Mean ± SE [3]: 1.88 ± 0.11

Oc1cc(O)cc(/C=C/C2CCCCC2)c1 [BML-224, (E)-1-(3,5-Dihydroxyphenyl)-2-(cyclohexyl) ethene]
Ratio to Control Rate Mean ± SE [3]: 1.297 ± 0.042

CCc1ccc(/C=C/c2cc(O)cc(O)c2)cc1 [BML-225, 3,5-Dihydroxy-4′-ethyl-trans-stilbene]
Ratio to Control Rate Mean ± SE [4]: 9.373 ± 0.014

COCOc1cc(/C=C/c2ccc(SC)cc2)cc(OCOC)c1 [BML-226, 3,5-Dimethoxymethoxy-4′-thiomethyl-trans-stilbene]
Ratio to Control Rate Mean ± SE [3]: 2.316 ± 0.087

CC(=O)Oc1cc(O)cc(/C=C/c2ccc(O)cc2)c1 [BML-227, 3,4′-Dihydroxy-5-acetoxy-trans-stilbene]
Ratio to Control Rate Mean ± SE [1]: 3.340 ± 0.093

Cc1ccc(/C=C/c2cc(O)cc(O)c2)cc1 [BML-228, 3,5-Dihydroxy-4′-methyl-trans-stilbene]
Ratio to Control Rate Mean ± SE [4]: 7.72 ± 0.12

O=[N+]([O-])c1ccc(/C=C/c2cc(O)cc(O)c2)cc1 [BML-229, 3,5-Dihydroxy-4′-nitro-trans-stilbene]
Ratio to Control Rate Mean ± SE [5]: 6.78 ± 0.22

CSc1ccc(/C=C/c2cc(O)cc(O)c2)cc1 [BML-230, 3,5-Dihydroxy-4′-thiomethyl-trans-stilbene]
Ratio to Control Rate Mean ± SE [5]: 6.84 ± 1.26

CC(C)c1ccc(/C=C/c2cc(O)cc(O)c2)cc1 [BML-231, 3,5-Dihydroxy-4′-isopropyl-trans-stilbene]
Ratio to Control Rate Mean ± SE [5]: 6.01 ± 0.15

[N-]=[N+]=Nc1ccc(/C=C/c2cc(O)cc(O)c2)cc1 [BML-232, 3,5-Dihydroxy-4′-azido-trans-stilbene]
Ratio to Control Rate Mean ± SE [5]: 7.24 ± 0.12
SIRT1 stimulating activity (in words) (polyphenol screen): very similar SIRT1 activating properties to resveratrol

O=C(/C=C/c1ccc(O)c(O)c1)Oc1ccccc1 [Caffeic Acid Phenyl Ester]
Ratio to Control Rate Mean ± SE [6]: 1.80 ± 0.16

O=C(/C=C/c1ccccc1)c1ccccc1 [Chalcone]
Ratio to Control Rate Mean ± SE [7]: 1.34 ± 0.17

O=c1oc2cc(O)ccc2c2oc3cc(O)ccc3c12 [Coumestrol]
Ratio to Control Rate Mean ± SE [8]: 2.30 ± 0.31

Oc1cc(O)c2cc(O)c(-c3ccc(O)c(O)c3)[o+]c2c1.[Cl-] [Cyanidin chloride, 3,5,7,3′,4′-Pentahydroxyflavylium chloride]
Ratio to Control Rate Mean ± SE [9]: 0.451 ± 0.015

O=c1c(-c2ccc(O)cc2)coc2cc(O)ccc12 [Daidzein, 7,4′-Dihydroxyisoflavone]
Ratio to Control Rate Mean ± SE [9]: 2.28 ± 0.74

Oc1cc(O)c2cc(O)c(-c3cc(O)c(O)c(O)c3)[o+]c2c1.[Cl-] [Delphinidin chloride, 3,5,7,3′,4′,5′-Hexahydroxyflavylium chloride]
Ratio to Control Rate Mean ± SE [9]: 0.4473 ± 0.0071

COc1ccc(/C=C/c2cc(O)cc(O[C@@H]3O[C@H](CO)[C@@H](O)[C@H](O)[C@H]3O)c2)cc1 [Deoxyrhapontin, 3,5-Dihydroxy-4′-methoxystilbene 3-O-β-D-glucoside]
Ratio to Control Rate Mean ± SE [7]: 1.94 ± 0.21

Oc1ccc(CCc2cc(O)cc(O)c2)cc1 [Dihydroresveratrol, 1-(3,5-Dihydroxyphenyl)-2-(4-hydroxyphenyl) ethane]
Ratio to Control Rate Mean ± SE [2]: 1.08 ± 0.14

O=c1ccc2cc(O)c(O)cc2o1 [Esculetin]
Ratio to Control Rate Mean ± SE [8]: 1.737 ± 0.082

O=C1CC(c2ccccc2)Oc2ccccc21 (centres unmarked) [Flavanone]
Ratio to Control Rate Mean ± SE [9]: 1.92 ± 0.24

O=c1cc(-c2ccccc2)oc2ccccc12 [Flavone]
Ratio to Control Rate Mean ± SE [10]: 1.41 ± 0.23

O=c1c(O)c(-c2ccc(O)c(O)c2)oc2c(O)c(O)cc(O)c12 [Gossypetin, 3,5,7,8,3′,4′-Hexahydroxyflavone]
Ratio to Control Rate Mean ± SE [10]: 0.723 ± 0.062

Cl.O.O=C(O)CN(CCN(CC(=O)O)Cc1ccccc1O)Cc1ccccc1O [HBED, N,N′-Di-(2-hydroxybenzyl)ethylenediamine-N,N′-diacetic acid.HCl.H2O, reference compound]
Ratio to Control Rate Mean ± SE [6]: 1.150 ± 0.090

CC(C)c1cccc(=O)c(O)c1 [Hinokitiol, 2-hydroxy-4-isopropyl-2,4,6-cycloheptatrien-1-one]
Ratio to Control Rate Mean ± SE [6]: 2.48 ± 0.15

O=c1c(O)c(-c2ccc(O)cc2)oc2cc(O)cc(O)c12 [Kaempferol, 3,5,7,4′-Tetrahydroxyflavone]
Ratio to Control Rate Mean ± SE [11]: 3.55 ± 0.56

C[N+](C)(C)[C@@H](Cc1c[nH]c(=S)[nH]1)C(=O)[O-] [L-(+)-Ergothioneine, (S)-a-Carboxy-2,3-dihydro-N,N,N-trimethyl-2-thioxo-1H-imidazole-4-ethanaminium inner salt]
Ratio to Control Rate Mean ± SE [6]: 2.06 ± 0.48

O=c1cc(-c2ccc(O)c(O)c2)oc2cc(O)cc(O)c12 [Luteolin, 5,7,3′,4′-Tetrahydroxyflavone]
Ratio to Control Rate Mean ± SE [11]: 5.66 ± 0.80

CC1=NN(c2ccccc2)C(=O)C1 [MCI-186, 3-Methyl-1-phenyl-2-pyrazolin-5-one, reference compound]
Ratio to Control Rate Mean ± SE [6]: 1.2513 ± 0.0080

O=c1c(O)c(-c2ccc(O)cc2O)oc2cc(O)cc(O)c12 [Morin, 3,5,7,2′,4′-Pentahydroxyflavone]
Ratio to Control Rate Mean ± SE [10]: 1.461 ± 0.071

O=c1c(O)c(-c2cc(O)c(O)c(O)c2)oc2cc(O)cc(O)c12 [Myricetin, 3,5,7,3′,4′,5′-Hexahydroxyflavone]
Ratio to Control Rate Mean ± SE [10]: 0.898 ± 0.070

CC(Cc1ccc(O)c(O)c1)C(C)Cc1ccc(O)c(O)c1 (centres unmarked) [NDGA]
Ratio to Control Rate Mean ± SE (Supplementary Table 8, compound at 100 μM, 25 μM NAD+, 25 μM p53-382 acetylated peptide): 1.738 ± 0.088

O=C(Nc1cccc(C(=O)Nc2ccc(S(=O)(=O)O)c3cc(S(=O)(=O)O)cc(S(=O)(=O)O)c23)c1)Nc1cccc(C(=O)Nc2ccc(S(=O)(=O)O)c3cc(S(=O)(=O)O)cc(S(=O)(=O)O)c23)c1 [NF023, reference compound]
Ratio to Control Rate Mean ± SE [12]: −0.0016

O=C(Nc1ccc(C(=O)Nc2ccc(C(=O)Nc3ccc(S(=O)(=O)O)c4cc(S(=O)(=O)O)cc(S(=O)(=O)O)c34)cc2)cc1)Nc1ccc(C(=O)Nc2ccc(C(=O)Nc3ccc(S(=O)(=O)O)c4cc(S(=O)(=O)O)cc(S(=O)(=O)O)c34)cc2)cc1 [NF279, reference compound]
Ratio to Control Rate Mean ± SE [12]: 0.0035

O=C1CC(c2ccc(O)cc2)Oc2cc(O)cc(O)c21 (centres unmarked) [Naringenin, 5,7,4′-Trihydroxyflavanone]
Ratio to Control Rate Mean ± SE [9]: 2.10 ± 0.23

NC(=O)c1cccnc1 [Nicotinamide, reference compound]
SIRT1 Vmax decrease (50 μM nicotinamide, absence of resveratrol, NAD+ or p53-382 peptide varied): 30% and 36%
Ratio to Control Rate Mean ± SE [12]: 0.428

Oc1ccc(-c2[o+]c3cc(O)cc(O)c3cc2O)cc1.[Cl-] [Pelargonidin chloride, 3,5,7.4′-Tetrahydroxyflavylium chloride]
Ratio to Control Rate Mean ± SE: 1.586

COc1ccc(/C=C/c2cc(O)cc(O)c2)cc1O [Rhapontin aglycone, 3,5,3′Trihydroxy-4′-methoxy-trans-stilbene]
Ratio to Control Rate Mean ± SE [1]: 4.060 ± 0.069

COc1ccc(/C=C/c2cc(O)cc(O[C@@H]3O[C@H](CO)[C@@H](O)[C@H](O)[C@H]3O)c2)cc1O [Rhapontin, 3,3′,5-Trihydroxy-4′-methoxystilbene 3-O-β-D-glucoside]
Ratio to Control Rate Mean ± SE [7]: 1.40 ± 0.37

CCCCCCCCCCCCC/C=C/[C@@H](O)[C@@H](N)CO [Sphingosine]
Ratio to Control Rate Mean ± SE (Supplementary Table 8, compound concentration not given, 25 μM NAD+, 25 μM p53-382 acetylated peptide): 0.069 ± 0.028

Cc1ccc(C(=O)Nc2ccc(S(=O)(=O)O)c3cc(S(=O)(=O)O)cc(S(=O)(=O)O)c23)cc1NC(=O)c1cccc(NC(=O)Nc2cccc(C(=O)Nc3cc(C(=O)Nc4ccc(S(=O)(=O)O)c5cc(S(=O)(=O)O)cc(S(=O)(=O)O)c45)ccc3C)c2)c1 [Suramin, reference compound]
Ratio to Control Rate Mean ± SE: −0.0002
